Laboratory results taken from patent publication US12296023B2, “Chemically and photochemically initiated cell membrane blebbing to induce cell vesicle production, modifications thereof, and uses thereof” (The Regents of the University of California, priority 2018, dated 2025).

Key:
[1] = system: HeLa cells; experiment: N-ethylmaleimide induced cell vesicle production time course; format: cell-based, human; conditions: 2 mM NEM in 1×DPBS; 1 h, 3 h, 5 h, 8 h, 24 h
Procedure: Protocol for N-ethylmaleimide induced cell vesicle production: HeLa cells were plated at 70% confluency (6×10^6 cells/100 mm cell culture plate) and incubated for 4 h at 37° C. and 5% CO2. Media was removed and cells were washed three times with 10 mL of 1×DPBS. […] Cells were imaged using a standard inverted light microscope and DPBS solution containing ICVs were collected, isolated, and analyzed by dynamic light scattering (DLS) for size.
Protocol for nano- and microscale induce cell vesicle isolation: Cells and debris were removed by centrifugation at 1200 rpm for 5.5 min, repeated three times, each time collecting supernatant into a clean tube. Then, mICVs were isolated from the supernatant by centrifugation at 16,000×g for 10 min. After the first spin, supernatant was collected for nICV isolation while micro ICV pellets were washed with 1×DPBS. This was repeated two additional times, discarding supernatant and washing the mICV pellet with 1×DPBS. nICVs were isolated using 100 kDa Amicon® ultrafiltration at 3300×g for 15 min, repeated three times with 1×DPBS washes. Final mICVs and nICVs collected were suspended in 100 uL 1×DPBS and then characterized.
(§1) Characterization of mICVs and nICVs: mICVs and nICVs were imaged using a bright field microscope and inverted light microscope. The sizing of produced ICVs were measured by using dynamic light scattering (DLS). […]

[2] = system: stock AAV; experiment: Transduction of NEM-treated stock AAV; format: cell-based, AAV2
[3] = system: AAV isolate from lysate; experiment: Transduction of NEM-treated AAV from producer cell lysate; format: cell-based, AAV2
[4] = system: E.G7-OVA cells; experiment: Tumor challenge study after vaccination; format: in vivo, C57BL/6 mice; conditions: for tumor growth: s.c. vaccination plus booster, 300,000 E.G7-OVA cells s.c.; for survival: tumor challenge
Procedure: Tumor challenge study. 12 wk.-old C57BL/6 mice (Charles River Laboratories, Wilmington, MA) were vaccinated by s.c. injection with DPBS, OVA protein, SIINFEKL peptide, SIINFEKL-presenting BDMCs, or SIINFEKL-presenting BMDC mICVs. With the exception of the control (DPBS) group, each group received vaccinations that were equivalent to a dosage of 100 μL of 50 μM SIINFEKL as quantified by CPRG assay. Vaccinations were given twice 14 days apart. 7 days after the second injection, mice were injected s.c. with 300,000 E.G7-OVA cells in the right flank. Tumor growth was monitored by measuring the tumor size with calipers every 48 h.
Mice received a single vaccination followed by a booster vaccination two weeks later). Seven days after completion of a vaccination schedule. mice were challenged with E.G7-OVA cells and tumor growth was assessed over four weeks. FIG. 72 provides images from Day 30 of the tumor challenge with mice by vaccine category. […] The foregoing tumor challenge result indicates promise for use of antigenic ICVs as effective cancer vaccines.

[5] = system: HeLa cells; experiment: AlPcS2A photoinitiated induced cell vesicle production (670 nm laser); format: cell-based, human; conditions: 1 ug/mL for 24 h then light, vs light alone
Procedure: Protocol for Photoinitiated induced cell vesicle production: HeLa cells were plated at 70% confluency (6×10^6 cells/100 mm cell culture plate) and incubated for 4 h at 37° C. and 5% CO2. Cells were then imaged to confirm adherence to the plate and, in the dark, media was changed to media containing 1 ug/mL of the photosensitizer aluminum disulfonated phthalocyanine (AlPcS2A) (10 mL of photosensitizer media per 100 mm each plate). Plates were wrapped in tinfoil and allowed to incubate for 24 h at 37° C. and 5% CO2. In the dark, the photosensitive media was removed and cells were washed three times with 10 mL of 1×DPBS. Then, 6 mL of 1×DPBS was added to each 100 mm plate and the plates were subjected to a 670 nm laser for varying time doses (10 min, 5 min, 2.5 min, 1.25 min). Cells were imaged using a standard inverted light microscope, and the DPBS solution containing ICVs was collected. 6 mL of fresh 1×DPBS was added to each 100 mm plate and the plates were incubated at 37° C. and 5% CO2 for 18 h to investigate ICV formation effects over time. Cells were imaged using a standard inverted light microscope and the DPBS solution containing ICVs was collected. […]
as §1

Compound: CCN1C(=O)C=CC1=O [NEM, N-ethylmaleimide]
- formation of nICVs [1]: induced the formation of nICVs at each time point
- stock AAV transduction efficiency ([2]; NEM incubation 10 minutes): reducing the transduction efficiency
- stock AAV transduction ([2]; NEM incubation 2 hours): almost no transduction
- transduction of AAV isolate from lysate ([3]; NEM exposure 8 hours vs 0-minute timepoint): about half the transduction
- transduction of AAV isolate from lysate ([3]; NEM exposure up to 4 hours): only a minimal drop in transduction

Compound: OVA: OVA protein vaccination control
- tumor growth [4]: rapidly developed tumors
- survival [4]: died prior to day 35

Compound: SIINFEKL [antigen peptide vaccination control]
- tumor growth [4]: rapidly developed tumors
- survival [4]: died prior to day 35

Compound: aluminum disulfonated phthalocyanine [AlPcS2A]
- yield of nICVs and mICVs [5]: greatly increased the yield of nICVs and mICVs
